This note sets out measurements from article PMC8300937, “New azolyl-derivatives as multitargeting agents against breast cancer and fungal infections: synthesis, biological evaluation and docking study” (Journal of Enzyme Inhibition and Medicinal Chemistry, 2021).

Structures are written as SMILES. Converted amounts (≈) assume the structure as drawn. Where only a bound is given, the exact number is not on record here.

One series concerns the target T1, Recombinant human iNOS (Homo sapiens, UniProt P35228).
T1 construct: purchased Enzo Life Sciences, Inc
Nature of the series: iNOS inhibition, L-citrulline assay with fluorimetric (HPLC) detection. Type of series: biochemical. Conditions: for iNOS % inhibition: compounds at 1 µM, normalised to 1400 W (positive control, 100% inhibition at 1 μM), triplicate, mean ± SD; for inhibition at 1 µM: read-out: iNOS % inhibition. The procedure:
The injection volume was 5 μL.
Recombinant human iNOS was purchased from Enzo Life Sciences, Inc. (New York, USA).

For a further series, the target named is T2, aromatase (CYP19A) (Homo sapiens, UniProt P11511).
T2 construct: purchased BioVision
T2 sequence (P11511 1-503): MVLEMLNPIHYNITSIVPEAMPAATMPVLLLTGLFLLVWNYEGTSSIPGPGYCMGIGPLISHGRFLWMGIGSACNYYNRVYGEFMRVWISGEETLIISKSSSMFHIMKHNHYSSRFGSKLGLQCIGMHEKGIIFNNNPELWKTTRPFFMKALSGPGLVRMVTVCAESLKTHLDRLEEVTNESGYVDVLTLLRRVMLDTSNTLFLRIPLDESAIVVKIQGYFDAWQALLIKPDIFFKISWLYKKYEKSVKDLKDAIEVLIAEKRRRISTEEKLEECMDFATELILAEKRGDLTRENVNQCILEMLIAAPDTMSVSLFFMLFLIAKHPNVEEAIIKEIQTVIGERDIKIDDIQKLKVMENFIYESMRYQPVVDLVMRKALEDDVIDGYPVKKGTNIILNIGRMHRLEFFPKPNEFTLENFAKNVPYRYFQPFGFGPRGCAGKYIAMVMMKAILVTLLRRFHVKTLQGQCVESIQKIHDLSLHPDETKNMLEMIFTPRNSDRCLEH
Description: Aromatase inhibition, fluorimetric assay kit (Aromatase-CYP19A Inhibitor Screening kit, BioVision). Type of series: biochemical. The note with it: read-out: Aromatase % inhibition.

Another series deals with C. albicans ATCC 90028. Description: Antifungal broth microdilution (EUCAST), standard strain. Type of series: cell-based. The note with it: Candida albicans, ATCC90028; C. albicans ATCC 90028; 24 h, ≥50% growth inhibition; read-out: MIC. How it is done: The antifungal activity of the most representative compounds was evaluated versus one ATCC 90028 strain and 15 clinical isolates belonging to the most clinically relevant Candida spp. (C. albicans, C. tropicalis, and C. glabrata). All strains were stored at −80 °C in Sabouraud Broth (Oxoid LTD, Basingstoke, Hampshire, England) with 20% of glycerine until their use. The strains were grown on Sabouraud CAF agar (Thermo Fisher Scientific Waltham, MA, USA), and incubated for 24–48 h at 37 °C. […] The in vitro antifungal activity was determined by broth microdilution method with RPMI 1640 (Sigma-Aldrich. ST Louis, MO, USA) as recommended by EUCAST, and the E. Def 7.3, method document (http://www.eucast.org). […] Each plate included the following controls: (i) inoculum suspension (growth control), (ii) drug-free medium, (iii) medium with drug, and (iv) distilled water (used for the inoculum preparation). Fluconazole was used as a reference drug according to the EUCAST guidelines. The plates were incubated for 24 h at 37 °C, and then read with a plate reader at 530 nm. […] Three independent experiments were performed in triplicate.
(In general: Broth dilution looks for growth in wells or tubes with falling amounts of substance.)

Series [1] relates to MCF-7 breast cancer cell line. Description: Cell metabolic activity (MTT assay). Type of series: cell-based. The note with it: Homo sapiens, MCF7; MCF-7, 24 h exposure; read-out: IC50 cell metabolic activity (MTT). The procedure: Human breast cancer MCF-7 (HTB-22™) cells were purchased from ATCC® and maintained in Dulbecco’s Modified Eagle Medium (DMEM) high glucose supplemented with 10% of foetal bovine serum (FBS) and 1% of penicillin/streptomycin (all from Gibco-Thermofisher Scientific, MD, USA) at 37 °C and 5% CO2.
Cell metabolic activity of MCF-7 human breast cancer cells was assessed by MTT (3–(4,5-dimethylthiazol-2-yl)-2,5-diphenyltetrazolium bromide) test (Sigma Aldrich, Milan, Italy). Cells were seeded (0.1 × 10^4/well) in a 96-well tissue culture-treated plate (Falcon®, Corning Incorporated, NY, USA) and let them adhere for 24 h. Next, the cell monolayer was incubated in the presence of loading concentrations of compounds 2, 5 and 6 (0–400 µM) diluted in DMSO (final concentration 0.2%) for 24, 48 and 72 h. After the exposure time, cells were incubated with 100 μL/well of MTT (5 mg/mL) 1:10 with fresh growth medium (final concentration 0.5 mg/mL) for 4 h at 37 °C and 5% CO2. Finally, the MTT solution was removed and replaced with 100 µL/well of DMSO. Cells were incubated for an additional 20 min at 37 °C and 5% CO2 and afterward gently swirled for 10 min at room temperature. The optical density was measured at 540 nm by means of a spectrophotometer (Multiskan GO, Thermo Scientific, Monza, Italy). Results were expressed as the percentage of cells in the presence of vehicle (DMSO) set as 100% and each experiment was performed in triplicate (n = 3). Concentration-response curves and IC50 were fitted and calculated with the GraphPad Prism 5.0 (GraphPad Software, San Diego, CA, USA)[27].
For orientation: Formazan colour is commonly taken as a measure of viable cells.

Description for aromatase (CYP19A): The aromatase inhibitory activity of the novel compounds was determined using a commercial fluorimetric kit (Aromatase CYP19A Inhibitor Screening kit, BioVision, Milpitas, CA, USA). The assay utilises a fluorogenic aromatase substrate, that is converted into a highly fluorescent metabolite detected in the visible range (Ex/Em = 488/527 nm), ensuring a high signal-to-background ratio with little interference by autofluorescence.

Take `CC(=N)NCc1cccc(CN)c1` [1400 W, reference compound]: the iNOS % inhibition at Recombinant human iNOS was found to be 100%.
With `OC(Cc1ccccc1)Cn1ccnc1` (stereo not drawn) [Compound 1, 1-(1H-imidazol-1-yl)-3-phenylpropan-2-ol], on Recombinant human iNOS, the iNOS % inhibition entry was “complete enzyme inhibition”.
As usually defined, the inhibition is the percentage by which the read-out fell short of the control. Broadly, the MIC is the least concentration at which growth counts as inhibited. As a reminder, the melting point is the temperature of the solid-liquid transition. Compound `O=C(OC(Cc1ccccc1)Cn1ccnc1)c1ccc2ccccc2c1` (stereo not drawn) [Compound 3, 1-benzyl-2-(1H-imidazol-1-yl)ethyl 2-naphthoate] displayed a melting point of 71 to 72 °C. Also, the inhibition at 1 µM on aromatase (CYP19A) turned out to be 13 ± 0.5%. Also, the inhibition at 1 µM on Recombinant human iNOS came to 0%. In addition, in the series with C. albicans ATCC 90028, the MIC worked out at 64 µg/mL (≈ 180 µM).
The compound `O=C(OC(Cc1ccccc1)Cn1ccnc1)c1cccc(C(=O)c2ccccc2)c1` (stereo not drawn) [Compound 4, 1-benzyl-2-(1H-imidazol-1-yl)ethyl 3-benzoylbenzoate] yielded a melting point of 86 to 87 °C. Also, at aromatase (CYP19A), the inhibition at 1 µM is 36 ± 1.2%. The inhibition at 1 µM at Recombinant human iNOS worked out at 47 ± 1.3%. For the same compound, the MIC in the series with C. albicans ATCC 90028 is greater than 64 µg/mL.
By IC50 is commonly meant the concentration at which inhibition is half-maximal. `O=C(NCc1ccccc1)OC(Cc1ccccc1)Cn1ccnc1` (stereo not drawn) [Compound 6, 1-benzyl-2-(1H-imidazol-1-yl)ethyl benzylcarbamate]: the inhibition at 1 µM amounted to 72 ± 1.4% on aromatase (CYP19A) and 52 ± 0.7% at Recombinant human iNOS. In addition, in series [1], the half-maximal inhibitory concentration (IC50) is greater than 400 µM. For the same compound, the minimal inhibitory concentration (MIC) in the series with C. albicans ATCC 90028 was greater than 64 µg/mL.
`COc1ccc(NC(=S)OC(Cc2ccccc2)Cn2ccnc2)c(OC)c1` (stereo not drawn) [Compound 7, O-[1-benzyl-2-(1H-imidazol-1-yl)ethyl] (2,4-dimethoxyphenyl)thiocarbamate]: the inhibition at 1 µM on aromatase (CYP19A) is 15 ± 0.3%; at Recombinant human iNOS, 7 ± 0.08%. Besides, the minimum inhibitory concentration (MIC) in the series with C. albicans ATCC 90028 is greater than 64 µg/mL.
For the compound `COc1cc(C)ccc1NC(=S)OC(Cc1ccccc1)Cn1ccnc1` (stereo not drawn) [Compound 8, O-[1-benzyl-2-(1H-imidazol-1-yl)ethyl] (2-methoxy-4-methylphenyl)thiocarbamate], the melting point lay within 120 to 121 °C. For the same compound, the inhibition at 1 µM at aromatase (CYP19A) was 54 ± 0.9%. For the same compound, the inhibition at 1 µM at Recombinant human iNOS was found to be 12 ± 0.1%.
Compound `O=S(=O)(c1ccccc1)N1CCCC(Cn2cncn2)C1` (stereo not drawn) [Compound 13, 1-(phenylsulfonyl)-3-(1H-1,2,4-triazol-1-ylmethyl)piperidine] yielded a melting point of 72 to 73 °C. In addition, the inhibition at 1 µM on aromatase (CYP19A) was 29 ± 1.5%. For the same compound, the inhibition at 1 µM on Recombinant human iNOS turned out to be 27 ± 0.4%.
As for `Cc1ccc(S(=O)(=O)N2CCCC(Cn3cncn3)C2)cc1` (stereo not drawn) [Compound 14, 1-[(4-methylphenyl)sulphonyl]-3-(1H-1,2,4-triazol-1-ylmethyl)piperidine], the inhibition at 1 µM is 32 ± 1.2% on aromatase (CYP19A) and 22 ± 0.5% at Recombinant human iNOS.
On to `COc1ccc(S(=O)(=O)N2CCCC(Cn3cncn3)C2)c(OC)c1` (stereo not drawn) [Compound 15, 1-[(2,4-dimethoxyphenyl)sulphonyl]-3-(1H-1,2,4-triazol-1-ylmethyl)piperidine], for which the inhibition at 1 µM at aromatase (CYP19A) was determined as 62 ± 2.8%; on Recombinant human iNOS, 18 ± 0.1%.
As for `O=[N+]([O-])c1cccc(S(=O)(=O)N2CCCC(Cn3cncn3)C2)c1` (stereo not drawn) [Compound 16, 1-[(3-nitrophenyl)sulphonyl]-3-(1H-1,2,4-triazol-1-ylmethyl)piperidine], the inhibition at 1 µM on aromatase (CYP19A) was 63 ± 3.1%; at Recombinant human iNOS, 47 ± 0.3%. Besides, the minimum inhibitory concentration (MIC) in the series on C. albicans ATCC 90028 is greater than 64 µg/mL.
`Cc1ccc(S(=O)(=O)N2CCCC(Cn3cncn3)C2)cc1[N+](=O)[O-]` (stereo not drawn) [Compound 17, 1-[(4-methyl-3-nitrophenyl)sulphonyl]-3-(1H-1,2,4-triazol-1-ylmethyl)piperidine] yielded a melting point of 105 to 106 °C. At aromatase (CYP19A), the inhibition at 1 µM was 25 ± 1.3%. Besides, the inhibition at 1 µM at Recombinant human iNOS worked out at 39 ± 0.2%. Besides, the MIC in the series with C. albicans ATCC 90028 is greater than 64 µg/mL.
The compound `N#Cc1ccc(S(=O)(=O)N2CCCC(Cn3cncn3)C2)c(Cl)c1` (stereo not drawn) [Compound 18, 3-chloro-4-{[3-(1H-1,2,4-triazol-1-ylmethyl)piperidin-1-yl]sulphonyl}benzonitrile] returned a melting point of 81 to 82 °C. Besides, the inhibition at 1 µM at aromatase (CYP19A) worked out at 55 ± 1.1%. The inhibition at 1 µM on Recombinant human iNOS is 14 ± 0.2%. In addition, the MIC in the series on C. albicans ATCC 90028 is greater than 64 µg/mL.
Regarding `N#Cc1ccc(S(=O)(=O)N2CCCC(Cn3cncn3)C2)cc1` (stereo not drawn) [Compound 19, 4-{[3-(1H-1,2,4-triazol-1-ylmethyl)piperidin-1-yl]sulphonyl}benzonitrile], the melting point is 95 to 96 °C. Besides, the inhibition at 1 µM on aromatase (CYP19A) amounted to 48 ± 1.7%. Besides, the inhibition at 1 µM at Recombinant human iNOS amounted to 16 ± 0.7%.
As to `CC(=O)Nc1ccc(S(=O)(=O)N2CCCC(Cn3cncn3)C2)cc1` (stereo not drawn) [Compound 20, N-(4-{[3-(1H-1,2,4-triazol-1-ylmethyl)piperidin-1-yl]sulphonyl}phenyl)acetamide], the inhibition at 1 µM on aromatase (CYP19A) is 61 ± 2.1%; at Recombinant human iNOS it was 0%.
Regarding `OC(Cn1cncn1)(Cn1cncn1)c1ccc(F)cc1F` [Fluconazole, reference compound], the MIC in the series with C. albicans ATCC 90028 was found to be 0.25 µg/mL (≈ 0.816 µM).
In the case of `N#Cc1ccc(C(c2ccc(C#N)cc2)n2cncn2)cc1` [letrozole, reference compound], the inhibition at 1 µM at aromatase (CYP19A) stood at 100%.
